Molecules are shown by their SMILES. Records with an inconclusive call do not appear. Calls of active or inactive are those of the source. No rule for the calls is given here.

A short description of this experiment: NIH/3T3 fibroblast cytotoxicity, dose response, cytotoxicity control, cell-based, plate reader, dry powder, set 2 (AID 652280). The conditions noted are these: NIH/3T3 mouse fibroblast toxicity, plate reader; at 16 µM (top of the series).
For the molecule `CC(C)N1C[C@H](CN(C)Cc2ccc(Cl)cc2)Oc2c(NC(=O)c3ccnnc3)cccc2C1=O`, the activity change, negative = toxicity is 3.72% (inactive). Under `CC(C)N1C[C@@H](C)[C@H](CN(C)Cc2ccc(OCCCC(F)(F)C(F)(F)C(F)(F)C(F)(F)C(F)(F)C(F)(F)C(F)(F)C(F)(F)F)cc2)Oc2c(NC(=O)c3ccncc3)cccc2C1=O` stands 22.1% (inactive). Under `COc1ccc(CN(C)C[C@@H]2Oc3c(NC(=O)c4ccncc4)cccc3C(=O)N([C@@H](C)CO)C[C@H]2C)cc1` stands -22.2% (inactive); under `CN(C)C(=O)c1ccc(-c2ccc([C@H]3[C@H](CO)N4CCCCN(C(=O)C5CCCC5)C[C@@H]34)cc2)cc1`, -15.7% (inactive). In the case of `CC(C)N1C[C@H](CN)Oc2c(NC(=O)c3ccncc3)cccc2C1=O`, the activity change, negative = toxicity is 4.38% (inactive). Under `O=C(CN1CCOCC1)N1CCCCN2[C@@H](CO)[C@H](c3ccc(-c4ccccc4)cc3)[C@@H]2C1` stands -1.37% (inactive). Under `CC(C)N1C[C@@H](CN(C)Cc2ccc(Cl)cc2)Oc2c(NC(=O)c3ccnnc3)cccc2C1=O` stands 2.62% (inactive); under `COc1ccccc1CN(C)C[C@H]1Oc2c(NC(=O)c3ccncc3)cccc2C(=O)N([C@@H](C)CO)C[C@@H]1C`, -28.8% (inactive). Under `CC(C)N1C[C@H](C)[C@@H](CN(C)Cc2ccc(Cl)cc2)Oc2c(C(=O)Nc3ccncc3)cccc2C1=O` stands -7.6% (inactive); under `CC(c1ccc(Cl)cc1)N1CC2(C1)CN(C(C)C)C(=O)c1cccc(NC(=O)c3ccncc3)c1O2` (configuration not stated), 6.05% (inactive). Regarding `CC(C)N1C[C@@H](CN(C)Cc2ccc(Cl)cc2)Oc2c(C(=O)Nc3ccncc3)cccc2C1=O`, the activity change, negative = toxicity was -18.4% (inactive). Take `C[C@@H]1CCCCO[C@H](CN(C)C(=O)Nc2cccc3ccccc23)[C@@H](C)CN([C@H](C)CO)C(=O)c2cc(N(C)C)ccc2O1`: the activity change, negative = toxicity was -0.649% (inactive). Regarding `Cc1ccc(CN(C)C[C@H]2Oc3c(NC(=O)c4ccncc4)cccc3C(=O)N([C@@H](C)CO)C[C@@H]2C)cc1`, the activity change, negative = toxicity is -16.5% (inactive). As to `CN(C)C(=O)c1cccc(-c2ccc([C@H]3[C@H](CO)N4CCCCN(C(=O)C5CCCC5)C[C@@H]34)cc2)c1`, the activity change, negative = toxicity was 32.1% (inactive). As for `C[C@@H]1CN([C@@H](C)CO)C(=O)c2cccc(NC(=O)c3ccncc3)c2O[C@H]1CN(C)Cc1cccc(Cl)c1`, the activity change, negative = toxicity is -5.45% (inactive). The result for `C[C@@H]1CN([C@@H](C)CO)C(=O)c2cc(-c3cncnc3)cnc2O[C@H]1CN(C)Cc1ccc(Oc2ccccc2)cc1` reads -26.5% (inactive); that for `COC[C@H](C)N1C[C@H](C)[C@@H](CN(C)Cc2ccc(Oc3ccccc3)cc2)Oc2c(NC(=O)c3ccncc3)cccc2C1=O`, 128% (inactive); that for `CN(C)CC#Cc1cccc(-c2nc(C(=O)NCc3ccc4c(c3)OCO4)cc3c2[C@@H](CCO)N(S(=O)C(C)(C)C)C3)c1` (some centres not stated), 0.74% (inactive). The result for `CC(C)N1CC[C@@H](CNC(=O)OC(C)(C)C)Oc2c(NC(=O)c3ccncc3)cccc2C1=O` reads -8.28% (inactive); that for `C[C@@H]1CN([C@@H](C)CO)C(=O)c2cccc(NC(=O)c3ccncc3)c2O[C@H]1CN(C)C`, -10.2% (inactive). For the molecule `COc1ccc(S(=O)(=O)N(C)C[C@H]2OCCCC[C@H](C)Oc3ccc(N(C)C)cc3C(=O)N([C@H](C)CO)C[C@@H]2C)cc1`, the activity change, negative = toxicity is 10% (inactive). Under `C[C@H]1CN([C@@H](C)CO)C(=O)c2cccc(NC(=O)c3ccncc3)c2O[C@@H]1CN(C)Cc1cccc(C(F)(F)F)c1` stands -10.7% (inactive); under `C[C@@H]1CN([C@H](C)CO)C(=O)c2cccc(NC(=O)c3ccncc3)c2O[C@H]1CN(C)Cc1ccc2c(c1)OCO2`, -14.9% (inactive). For the molecule `O=C(Cn1ccnc1[N+](=O)[O-])NCc1ccccc1`, the activity change, negative = toxicity is 17.4% (inactive). Turning to `COCC(=O)N1CCCCN2[C@@H](CO)[C@H](c3ccc(-c4cccc(C)c4)cc3)[C@@H]2C1`, the activity change, negative = toxicity is -12.3% (inactive). Regarding `C[C@H]1CN([C@@H](C)CO)C(=O)c2cccc(NC(=O)c3ccncc3)c2O[C@@H]1CN(C)Cc1cc(Cl)cc(Cl)c1`, the activity change, negative = toxicity was 15% (inactive).

In the case of `CN(C)CC#Cc1cccc(-c2nc(C(=O)NCc3ccc4c(c3)OCO4)cc3c2[C@H](CCO)N(S(=O)C(C)(C)C)C3)c1` (some centres not stated), the activity change, negative = toxicity is 6.62% (inactive).

With `CN(C)CC#Cc1cccc(-c2nc(C(=O)N3CCN(Cc4ccccc4)CC3)cc3c2[C@H](CCO)N(S(=O)C(C)(C)C)C3)c1` (some centres not stated), the activity change, negative = toxicity was -3.09% (inactive). The result for `CC(C)(C)S(=O)N1Cc2cc(C(=O)NCc3ccc4c(c3)OCO4)nc(-c3cccc(-c4cc5ccccc5o4)c3)c2[C@H]1CCO` (some centres not stated) reads -5.85% (inactive); that for `CCN(C)C[C@H]1Oc2c(NC(=O)c3ccncc3)cccc2C(=O)N(C(C)C)[C@@H]1C`, -7.46% (inactive); that for `C[C@H]1CN([C@@H](C)CO)C(=O)c2cccc(NC(=O)c3ccncc3)c2O[C@@H]1CN(C)Cc1ccc(F)c(F)c1`, -6.64% (inactive).

Consider `CN(C)C(=O)c1cccc(-c2ccc([C@@H]3[C@H](CO)N4CCCCN(C(=O)C5CCC5)C[C@@H]34)cc2)c1`, for which the activity change, negative = toxicity is -3.74% (inactive). Consider `COCCNC(=O)c1cc2c(c(-c3cccc(C#CCN(C)C)c3)n1)[C@H](CCO)N(S(=O)C(C)(C)C)C2` (some centres not stated), for which the activity change, negative = toxicity is 20.8% (inactive). The result for `CC(=O)N1CCCCN2[C@@H](CO)[C@H](c3ccc(-c4cccc(C(=O)N(C)C)c4)cc3)[C@@H]2C1` reads 24.4% (inactive). Under `CCOC(=O)c1cc2c(c(-c3cccc(C#CCN(C)C)c3)n1)[C@@H](CCO)N(S(=O)C(C)(C)C)C2` (some centres not stated) stands 21.1% (inactive). The result for `CC(C)N1CC2(CN(Cc3ccc(F)cc3)C2)Oc2c(NC(=O)c3ccncc3)cccc2C1=O` reads -0.418% (inactive); that for `C[C@@H](CO)N1CC[C@H](CNC(=O)OC(C)(C)C)Oc2c(cccc2[N+](=O)[O-])C1=O`, 16.7% (inactive). As to `CC(C)N1C[C@@H](C)[C@H](CN(C)C(=O)OC(C)(C)C)Oc2c(C(=O)O)cccc2C1=O`, the activity change, negative = toxicity is 14.1% (inactive). For `C[C@H]1CN([C@@H](C)CO)C(=O)c2cccc(NC(=O)c3ccncc3)c2O[C@@H]1CN(C)Cc1ccc(Cl)cc1Cl`, the activity change, negative = toxicity was -13.3% (inactive). Under `C[C@H]1CN([C@@H](C)CO)C(=O)c2cccc(NC(=O)c3ccncc3)c2O[C@@H]1CN(C)Cc1ccccc1C(F)(F)F` stands 14.1% (inactive).

For the molecule `CC(C)N1C[C@H](CNCc2ccc(Oc3ccccc3)cc2)Oc2c(NC(=O)c3ccncc3)cccc2C1=O`, the activity change, negative = toxicity was 5.88% (inactive). The result for `C[C@@H]1CCCCO[C@H](CN(C)Cc2ccc(Cl)c(Cl)c2)[C@@H](C)CN([C@H](C)CO)C(=O)c2cc(N(C)C)ccc2O1` reads 82.1% (inactive).

The record behind these values is PubChem BioAssay AID652280 (Broad Institute, 2013).
